Reference: US20070156342A1, “Pseudo-sequence method for comparing 7tm receptors with respect to the physico-chemical properties of their binding sites” (7TM PHARMA A/S, priority 2003, published 2007)

Target: T1, GRP44 (CRTH2) (Homo sapiens, UniProt Q9Y5Y4)
T1 sequence (Q9Y5Y4 1-395): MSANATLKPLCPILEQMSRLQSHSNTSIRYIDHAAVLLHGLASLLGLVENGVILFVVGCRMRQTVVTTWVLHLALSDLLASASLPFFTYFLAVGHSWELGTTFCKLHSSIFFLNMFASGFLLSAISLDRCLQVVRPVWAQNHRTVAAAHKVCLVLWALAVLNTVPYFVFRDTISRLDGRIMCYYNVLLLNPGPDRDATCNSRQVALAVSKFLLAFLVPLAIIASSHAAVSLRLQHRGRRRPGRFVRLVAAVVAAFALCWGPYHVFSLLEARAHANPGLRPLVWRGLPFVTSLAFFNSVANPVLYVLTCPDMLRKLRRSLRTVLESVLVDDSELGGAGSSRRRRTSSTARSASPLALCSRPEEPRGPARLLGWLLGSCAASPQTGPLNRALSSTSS
Assay: Inhibition of [3H]PGD2 at GRP44 (CRTH2)
Type: binding
Text: A model using theoretical size and electronic descriptors ranked the angiotensin AT2 and angiotensin AT1 receptors to be closely related to GRP44 (CRTH2) with respect to ligand-binding features in the binding site.

binding to CRTH2 (in words) (angiotensin II ligand found via the related receptor): also binding to CRTH2
IC50 (radioligand [3H]PGD2): 2100 nM
Compound: CCOc1nc2cccc(C(=O)O)c2n1Cc1ccc(-c2ccccc2-c2nnn[nH]2)cc1 [candesartan]
